What was measured:
[1] = target: T1, Alpha-ketoglutarate-dependent dioxygenase FTO (Homo sapiens, UniProt Q9C0B1); assay: Inhibition of FTO (unknown origin) demethylation activity using m6A7-Broccoli RNA as substrate incubated for 3 mins under shaking condition and measured after 2 hrs by fluorescence based analysis
[2] = target: T1, Alpha-ketoglutarate-dependent dioxygenase FTO; assay: Inhibition of FTO (unknown origin) demethylation activity

T1 sequence (Q9C0B1 whole entry): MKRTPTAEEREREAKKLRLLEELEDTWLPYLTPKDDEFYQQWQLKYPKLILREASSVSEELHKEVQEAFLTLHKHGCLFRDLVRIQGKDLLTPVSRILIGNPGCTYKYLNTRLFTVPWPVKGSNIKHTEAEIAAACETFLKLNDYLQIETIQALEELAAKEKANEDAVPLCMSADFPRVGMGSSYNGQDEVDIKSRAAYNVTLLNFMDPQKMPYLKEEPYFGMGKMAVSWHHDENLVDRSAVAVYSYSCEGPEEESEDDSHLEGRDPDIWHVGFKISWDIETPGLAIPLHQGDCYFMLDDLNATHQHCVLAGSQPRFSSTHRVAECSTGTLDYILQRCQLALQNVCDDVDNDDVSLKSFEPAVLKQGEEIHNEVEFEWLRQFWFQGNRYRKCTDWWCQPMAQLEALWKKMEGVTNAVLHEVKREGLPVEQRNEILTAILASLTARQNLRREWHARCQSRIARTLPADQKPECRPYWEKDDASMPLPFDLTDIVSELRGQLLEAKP

SMILES | IC50 [1] [nM] | IC50 [2] [nM]
Nc1sc(-c2cncnc2)c2c1C(=O)c1ccccc1-2 | 1200 | –
CCOc1nc2ccccc2nc1C(=O)Nc1ccc(N(CC)CC)cc1 | – | 1200
